The values below come from PMC7004070 (Chemmedchem, 2019).

For one data set, the system named is HepG2 cells. Kind of data set: WST-1 assay in HepG2 cells. Particulars: n=4; for concentration with anti-proliferative / toxic effect: WST-1 assay, HepG2 cells, 24 h; for cytotoxicity compared to 3: WST-1 assay in HepG2 cells. The class given is cell-based. Background: Tetrazolium dyes change colour on reduction, which living cells bring about.
The target in a further data set is CysLT1R. Particulars: read-out: CysLT1R Ki; cited from earlier work.
Another data set deals with T1, human full-length FXR (Homo sapiens, UniProt Q96RI1).
T1 sequence (Q96RI1 1-486): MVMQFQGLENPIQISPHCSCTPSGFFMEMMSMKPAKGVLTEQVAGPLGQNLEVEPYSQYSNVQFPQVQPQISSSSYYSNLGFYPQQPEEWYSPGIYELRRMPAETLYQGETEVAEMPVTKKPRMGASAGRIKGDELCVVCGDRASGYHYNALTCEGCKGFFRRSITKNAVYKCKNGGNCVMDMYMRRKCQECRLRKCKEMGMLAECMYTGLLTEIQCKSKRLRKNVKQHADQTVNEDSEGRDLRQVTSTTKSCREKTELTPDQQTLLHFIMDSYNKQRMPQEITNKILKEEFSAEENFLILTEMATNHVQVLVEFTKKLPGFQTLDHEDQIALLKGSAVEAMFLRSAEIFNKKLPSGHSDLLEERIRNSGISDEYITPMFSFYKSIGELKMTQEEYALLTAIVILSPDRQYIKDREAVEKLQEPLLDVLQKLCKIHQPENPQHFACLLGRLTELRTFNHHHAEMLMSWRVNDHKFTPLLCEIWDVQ
T1 sequence (P19793 1-462 partner): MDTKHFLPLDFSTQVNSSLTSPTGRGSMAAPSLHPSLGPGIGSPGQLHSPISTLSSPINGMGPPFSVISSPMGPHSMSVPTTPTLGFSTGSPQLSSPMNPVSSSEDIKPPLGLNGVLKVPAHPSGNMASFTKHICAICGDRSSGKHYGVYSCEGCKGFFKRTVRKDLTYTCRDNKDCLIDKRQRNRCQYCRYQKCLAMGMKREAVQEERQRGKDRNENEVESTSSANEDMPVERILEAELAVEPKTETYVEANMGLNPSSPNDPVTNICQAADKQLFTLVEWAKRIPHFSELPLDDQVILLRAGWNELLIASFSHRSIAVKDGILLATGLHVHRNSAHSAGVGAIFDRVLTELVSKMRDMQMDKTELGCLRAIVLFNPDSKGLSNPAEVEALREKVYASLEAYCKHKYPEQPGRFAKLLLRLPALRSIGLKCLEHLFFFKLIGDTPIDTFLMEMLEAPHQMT
Kind of data set: full-length FXR-BSEP reporter gene assay. It counts as cell-based. Particulars: for Emax: HeLa, read-out: FXR max. rel. act.; for FXR EC50: full-length FXR-BSEP reporter gene assay, HeLa cells, mean±S.E.M., n≥3, inactive = no significant activation up to 30 μM.

The next data set concerns the target T2, recombinant human sEH (Homo sapiens, UniProt P34913).
T2 sequence (P34913 1-555): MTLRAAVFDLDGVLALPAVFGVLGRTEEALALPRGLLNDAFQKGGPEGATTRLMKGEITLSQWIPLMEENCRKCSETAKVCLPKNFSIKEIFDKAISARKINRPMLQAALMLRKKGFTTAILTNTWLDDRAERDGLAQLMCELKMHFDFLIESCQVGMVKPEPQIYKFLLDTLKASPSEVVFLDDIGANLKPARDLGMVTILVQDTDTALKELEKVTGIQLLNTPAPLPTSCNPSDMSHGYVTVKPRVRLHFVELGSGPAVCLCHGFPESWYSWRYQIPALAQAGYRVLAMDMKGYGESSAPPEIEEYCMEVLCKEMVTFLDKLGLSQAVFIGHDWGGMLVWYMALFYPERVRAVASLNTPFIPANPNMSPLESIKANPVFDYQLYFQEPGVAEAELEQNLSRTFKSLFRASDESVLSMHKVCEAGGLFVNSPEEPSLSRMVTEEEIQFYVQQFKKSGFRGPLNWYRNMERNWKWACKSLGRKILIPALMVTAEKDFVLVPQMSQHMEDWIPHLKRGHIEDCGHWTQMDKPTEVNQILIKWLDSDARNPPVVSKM
Kind of data set: sEH activity assay on recombinant protein. It counts as biochemical.

The next data set deals with T3, human CysLT1R (Homo sapiens, UniProt Q9Y271).
T3 sequence (Q9Y271 1-337): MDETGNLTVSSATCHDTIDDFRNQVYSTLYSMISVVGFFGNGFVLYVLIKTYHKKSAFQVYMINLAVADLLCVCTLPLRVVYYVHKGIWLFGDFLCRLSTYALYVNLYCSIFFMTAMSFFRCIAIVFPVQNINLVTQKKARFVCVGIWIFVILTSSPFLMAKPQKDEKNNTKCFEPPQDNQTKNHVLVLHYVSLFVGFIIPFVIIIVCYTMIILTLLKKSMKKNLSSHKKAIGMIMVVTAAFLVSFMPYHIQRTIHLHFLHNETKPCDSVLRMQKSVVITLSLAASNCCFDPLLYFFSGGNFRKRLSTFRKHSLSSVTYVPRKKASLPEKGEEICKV
Kind of data set: CysLT1R antagonism assay, cell-based.

In data set [1] the test system is nuclear receptors related to FXR (PPARα, PPARγ, PPARδ, LXRα, LXRβ, RXRα, RARα, CAR). Kind of data set: Gal4 hybrid reporter gene assays for nuclear receptors related to FXR. It counts as cell-based, human. As to conditions: HEK293T, mean, n=2. For orientation: Reporter assays use an easily measured gene product as a stand-in for the process of interest.
Data set [2] addresses T4, sEH in HepG2 cell homogenate (Homo sapiens, UniProt P34913).
T4 sequence (P34913 1-555): T2 sequence (P34913 1-555)
Kind of data set: Cellular sEH assay: conversion of. The class given is cell-based. As to conditions: 10 μM; HepG2 homogenates; (±)14(15)-EET-d11; n≥4.

Data set [3] deals with FXR regulated genes (OSTα, SHP, CYP7A1) in HepG2 cells. It counts as cell-based. Particulars: 10 μM, 12 h, qPCR, n=3. For orientation: Quantitative PCR measures a nucleic acid by following its amplification.
In the next data set the target is T5, RARα (Homo sapiens, UniProt P10276).
T5 sequence (P10276 183-417 limits assumed): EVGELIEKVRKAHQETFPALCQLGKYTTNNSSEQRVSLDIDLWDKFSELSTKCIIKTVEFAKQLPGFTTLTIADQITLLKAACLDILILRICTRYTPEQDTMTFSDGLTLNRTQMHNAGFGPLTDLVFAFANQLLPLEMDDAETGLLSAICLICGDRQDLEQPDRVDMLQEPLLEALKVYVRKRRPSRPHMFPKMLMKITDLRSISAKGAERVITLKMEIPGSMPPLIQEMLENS
Kind of data set: Gal4 hybrid reporter gene assay for RARα in HEK293T cells. As to conditions: mean, n=2. The class given is cell-based.

Molecules are shown by their SMILES. “Also recorded” adds a separate entry of the source.

Usually Ki stands for the equilibrium dissociation constant of an inhibitor or competing ligand from its target. In the case of `COc1cc(C(=O)NS(=O)(=O)c2ccccc2C)ccc1Cc1cn(C)c2ccc(NC(=O)OC3CCCC3)cc12` [compound 3, Zafirlukast, reference compound], in the data set with HepG2 cells, the “concentration with anti-proliferative / toxic effect” value was not below 1 µM. Further, the Ki on CysLT1R was 0.0003 µM.
The term EC50 denotes the concentration at which the effect is half-maximal. One may read the IC50 as the concentration that gives 50% inhibition. With `COc1cc(C(=O)O)ccc1Cc1cn(C)c2ccc(NC(=O)c3ccc(C(C)(C)C)cc3)cc12` [compound 5, 4‐((5‐(4‐(tert‐Butyl)benzamido)‐1‐methyl‐1H‐indol‐3‐yl)methyl)‐3‐methoxybenzoic acid], on human full-length FXR, the EC50 was 0.6 ± 0.2 µM and the Emax is 29%. For the same compound, at recombinant human sEH, the IC50 was more than 30 µM.
As for `COc1cc(C(=O)O)ccc1Cc1cn(C)c2ccc(NC(=O)c3c(-c4c(Cl)cccc4Cl)noc3C(C)C)cc12` [compound 6, 4‐((5‐(3‐(2,6‐Dichlorophenyl)‐5‐isopropylisoxazole‐4‐carboxamido)‐1‐methyl‐1H‐indol‐3‐yl)methyl)‐3‐methoxybenzoic acid], on human full-length FXR, the “FXR EC50” value was “inactive”. Further, the IC50 at recombinant human sEH came out at 3.3 ± 0.6 µM.
On to `COc1cc(C(=O)O)ccc1Cc1cn(C)c2ccc(NC(=O)c3ccncc3)cc12` [compound 7, 4‐((5‐(Isonicotinamido)‐1‐methyl‐1H‐indol‐3‐yl)methyl)‐3‐methoxybenzoic acid], for which, at human full-length FXR, a half-maximal response (EC50) required 0.91 ± 0.06 µM and the Emax is 15%. Also, the IC50 on recombinant human sEH is more than 100 µM.
Turning to `Cn1cc(Cc2ccc(C(=O)O)cc2)c2cc(NC(=O)c3ccc(C(C)(C)C)cc3)ccc21` [compound 8, 4‐((5‐(4‐(tert‐Butyl)benzamido)‐1‐methyl‐1H‐indol‐3‐yl)methyl)benzoic acid], the concentration giving a half-maximal response (EC50) on human full-length FXR is more than 10 µM. Moreover, the IC50 at recombinant human sEH stood at 12 ± 1 µM.
Regarding `COc1ccc(C(=O)O)cc1Cc1cn(C)c2ccc(NC(=O)c3ccc(C(C)(C)C)cc3)cc12` [compound 9, 3‐((5‐(4‐tert‐Butylbenzamido)‐1‐methyl‐1H‐indol‐3‐yl)methyl)‐4‐methoxybenzoic acid], at human full-length FXR, the “FXR EC50” value was “inactive”. On recombinant human sEH, the IC50 was 86 ± 10 µM.
With `Cn1cc(Cc2cccc(C(=O)O)c2)c2cc(NC(=O)c3ccc(C(C)(C)C)cc3)ccc21` [compound 10, 3‐((5‐(4‐(tert‐Butyl)benzamido)‐1‐methyl‐1H‐indol‐3‐yl)methyl)benzoic acid], on human full-length FXR, it took 1.19 ± 0.08 µM to reach a half-maximal effect (EC50) and the Emax was 18%. Also, the IC50 at recombinant human sEH is 22 ± 3 µM.
In the same order, the values of `COc1cc(C(=O)O)ccc1Cc1cn(C(C)C)c2ccc(NC(=O)c3ccc(C(C)(C)C)cc3)cc12` [compound 11, 4‐((5‐(4‐(tert‐Butyl)benzamido)‐1‐isopropyl‐1H‐indol‐3‐yl)methyl)‐3‐methoxybenzoic acid] are 2.3 ± 0.1 µM, 11% and more than 100 µM.
On the same counts, the results for `COc1cc(C(=O)O)ccc1Cn1ccc2cc(NC(=O)c3ccc(C(C)(C)C)cc3)ccc21` [compound 12, 4‐((5‐(4‐(tert‐Butyl)benzamido)‐1H‐indol‐1‐yl)methyl)‐3‐methoxybenzoic acid] are 9.2 ± 0.8 µM, 23% and more than 100 µM.
For the compound `COc1cc(C(=O)O)ccc1Cn1ccc2ccc(NC(=O)c3ccc(C(C)(C)C)cc3)cc21` [compound 13, 4‐((6‐(4‐(tert‐Butyl)benzamido)‐1H‐indol‐1‐yl)methyl)‐3‐methoxybenzoic acid], the “higher potency on FXR compared to 16” value on human full-length FXR (13 compared to 16) is “approx. 10 fold”. For the same compound, the Emax at human full-length FXR is 15%. Further, at human full-length FXR (compared to 3), the “improvement of EC50 value on FXR compared to 3” value amounted to 15 fold. This compound gave an IC50 at human CysLT1R of approximately 1 µM. Moreover, in [1], the “selectivity over nuclear receptors related to FXR” value is “selective; also recorded: high selectivity”. In the data set with HepG2 cells, the “cytotoxicity compared to 3” value is “reduced cytotoxicity; also recorded: strongly reduced toxicity” and the “concentration with anti-proliferative / toxic effect” value is more than 10 µM. Moreover, the “conversion of EET to DHET (cellular sEH inhibition)” value in data set [2] is “blocked EET conversion to DHETs”. Further, in data set [3], the OSTα expression result is on record as “induced expression” and the SHP expression entry is listed as “induced expression”.
`COc1cc(C(=O)O)ccc1Cn1cnc2ccc(NC(=O)c3ccc(C(C)(C)C)cc3)cc21` [compound 14, 4‐((6‐(4‐(tert‐Butyl)benzamido)‐1H‐benzoimidazol‐1‐yl)methyl)‐3‐methoxybenzoic acid]: at human full-length FXR, a half-maximal response (EC50) required 5.3 ± 0.4 µM and the Emax is 26%. For the same compound, on recombinant human sEH, the IC50 came to 18 ± 5 µM. Besides, the “decrease of activity on sEH compared to 13” value on recombinant human sEH (benzimidazole 14 vs indole 13) is “approx. 10 fold”.
As for `CC(C)(C)c1ccc(C(=O)Nc2ccc3ccn(Cc4cccc(C(=O)O)c4)c3c2)cc1` [compound 15, 3‐((6‐(4‐(tert‐Butyl)benzamido)‐1H‐indol‐1‐yl)methyl)benzoic acid], at human full-length FXR, the “FXR EC50” value was “inactive”. Also, on recombinant human sEH, the IC50 was determined as 4.3 ± 0.4 µM.
Consider `CC(C)(C)c1ccc(C(=O)Nc2ccc3ccn(Cc4ccc(C(=O)O)cc4)c3c2)cc1` [compound 16, 4‐((6‐(4‐(tert‐Butyl)benzamido)‐1H‐indol‐1‐yl)methyl)benzoic acid], for which the Emax at human full-length FXR is 24%. At human CysLT1R, this compound returned a concentration for half-maximal inhibition (IC50) of more than 1 µM. The RARα activation result on RARα is “considerable RARα agonism; also recorded: marked RARα activation”. The “selectivity over nuclear receptors related to FXR” value in data set [1] was “selective; also recorded: high selectivity”. Moreover, in the data set with HepG2 cells, the “cytotoxicity compared to 3” value was “reduced cytotoxicity; also recorded: strongly reduced toxicity” and the “concentration with anti-proliferative / toxic effect” value is more than 10 µM. In [2], the “conversion of EET to DHET (cellular sEH inhibition)” value is “blocked EET conversion to DHETs”. In [3], the OSTα expression result is recorded as “induced expression” and the SHP expression entry is given as “induced expression”.
